{"source": "paper PMC9051593", "about": "“Glucagonlike Peptide-1 Receptor Imaging in Individuals with Type 2 Diabetes” (Journal of Nuclear Medicine, 2022)", "key": {"GLP1R [1]": {"molecular_target": "T1, GLP1R (Macaca fascicularis, UniProt F8V479)", "T1 construct": "from tissue; host or cells: pancreas of living cynomolgus monkeys (in vivo PET)", "T1 sequence (F8V479 24-463)": "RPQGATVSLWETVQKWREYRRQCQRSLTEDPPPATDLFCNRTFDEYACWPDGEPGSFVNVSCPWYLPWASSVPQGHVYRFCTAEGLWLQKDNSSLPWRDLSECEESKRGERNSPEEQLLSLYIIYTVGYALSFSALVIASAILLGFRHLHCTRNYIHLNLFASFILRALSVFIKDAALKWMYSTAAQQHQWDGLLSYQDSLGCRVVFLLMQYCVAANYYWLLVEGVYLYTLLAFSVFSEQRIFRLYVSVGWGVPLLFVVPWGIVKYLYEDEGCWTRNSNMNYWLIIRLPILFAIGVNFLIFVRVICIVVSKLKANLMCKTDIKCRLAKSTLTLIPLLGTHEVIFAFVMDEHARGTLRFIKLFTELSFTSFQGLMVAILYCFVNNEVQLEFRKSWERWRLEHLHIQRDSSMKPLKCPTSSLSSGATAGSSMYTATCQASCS", "assay": "68Ga-exendin4 PET dose escalation (self-blocking) study in NHP pancreas, Logan Vt", "type": "in vivo, cynomolgus NHPs", "conditions": "Vt of 68Ga-exendin4 vs coinjected unlabeled precursor peptide dose, 12 scans, estimated", "protocol": "A ^68Ga-exendin4 PET/CT imaging study on healthy cynomolgus NHPs was in part reported and described in detail previously ([5]). Briefly, NHPs were scanned by ^68Ga-exendin4 PET using a dose escalation study design in which several examinations were performed, several hours apart, over the course of one or several experimental days. Each subsequent scan entailed a higher peptide mass and radioactive dose to minimize influence from the preceding scan (Table 1). The resulting dataset enabled analysis of the self-blocking effect of the increasing amounts of coinjected unlabeled exendin4 precursor peptide.\nPreviously, only the simplified SUV analysis of 3 of the NHPs (8 scans) was reported ([5]). In preparation for the design of the clinical study, to better understand the peptide doses at which self-blocking starts to occur, we reanalyzed the dynamic NHP data from all 12 scans by graphical analysis using an image-derived blood plasma input.\nPancreas and other tissues of interest (such as spleen as a negative reference tissue) were delineated using PMOD, version 4.0 (PMOD Technologies). The PET signal for each tissue and time frame was corrected for the injected amount, and the image-derived input function was extracted by segmenting voxels fully within the lumen of the descending aorta as identified on early PET frames and coregistered CT projections. […]"}, "GLP1R in the pancreas": {"molecular_target": "T2, GLP1R in the pancreas (Homo sapiens, UniProt P43220)", "T2 construct": "underwent PET/CT scanning for GLP1R availability in the pancreas (^68Ga-exendin4); from tissue; host or cells: pancreas of living individuals with type 2 diabetes (in vivo PET/CT)", "T2 sequence (P43220 24-463)": "as the sequence (F8V479 24-463) above, with N112S, S120F, G202S, V205L, F237L, R241W, V249I counted along it", "type": "in vivo", "conditions": "humans with T2D, peptide dose less than 0.2 µg/kg; no negative correlation between peptide mass dose and net Ki", "protocol": "The PET assessments were performed 3 h after a standardized meal followed by fasting, to minimize the variability in GLP1 levels at the time of scanning. The individuals were examined over the abdomen with a Discovery MI PET/CT scanner (20-cm field of view; GE Healthcare). Low-dose CT was performed for attenuation correction and anatomic coregistration of PET images. The dose of the CT scan was limited by dosimetry considerations, given that each individual underwent up to 4 PET/CT examinations over the entire clinical study. A 0.5 MBq/kg target dose of ^68Ga-exendin4 (0.46 ± 0.03 MBq/kg, corresponding to 0.14 ± 0.04 μg of peptide per kilogram) was administered intravenously as a bolus. The amount of administered ^68Ga-exendin4 was based primarily on limiting the associated dose of DO3A-VS-exendin4 precursor peptide to below 0.2 μg/kg. This limit was imposed to minimize any self-blocking, and the cutoff was determined from the NHP dose escalation studies. Dynamic PET was initiated at administration and continued for 60 min. […] For 3 individuals, arterial sampling was performed at 5, 30, and 60 min after ^68Ga-exendin4 administration to measure the radioactivity in whole blood and plasma and to determine the metabolic stability of the tracer (the methods are shown in the supplemental materials, available at http://jnm.snmjournals.org) (17). […]"}, "[2]": {"set-up": "species or system human", "conditions": "in vivo; for Plasma-to-blood ratio: human, iv, 0.5 MBq/kg", "protocol": "Dynamic PET was initiated at administration and continued for 60 min. Blood sampling for glucose was performed before and during the scan as a safety precaution, as exendin4 can stimulate insulin secretion at pharmacologic doses. For 3 individuals, arterial sampling was performed at 5, 30, and 60 min after ^68Ga-exendin4 administration to measure the radioactivity in whole blood and plasma and to determine the metabolic stability of the tracer (the methods are shown in the supplemental materials, available at http://jnm.snmjournals.org) (17). Abdominal tissues of interest, including pancreas (target tissue), aorta (input signal), kidney (excretion), and spleen and erector spinae muscle (negative reference tissues) were manually segmented on coregistered PET/CT images using […] software, version 2.9 (Turku PET Center). The aorta was delineated by segmenting single voxels fully within the lumen of the descending aorta. The arterial plasma image-derived input function was generated by correcting the aorta signal for plasma-to-whole-blood partitioning and for the percentage of intact ^68Ga-exendin4 during the scan (based on a population estimate)."}, "GLP1R [3]": {"test_system": "GLP1R", "conditions": "in words, cited from earlier work", "protocol": "Exendin4 is a synthetic peptide that binds to GLP1R with nanomolar affinity and high specificity ([4]). […] In the absence of suitable antagonists, agonists such as exendin4 can be used as PET tracers, but care must be taken to avoid unwanted pharmacologic effects. […] Doses of around 0.5 µg/kg elicit up to 50% blocking of the signal."}, "GLP1R [4]": {"test_system": "GLP1R", "conditions": "in words; cited from earlier work", "protocol": "In the absence of suitable antagonists, agonists such as exendin4 can be used as PET tracers, but care must be taken to avoid unwanted pharmacologic effects. […] Doses of around 0.5 µg/kg elicit up to 50% blocking of the signal."}}, "note": "Read-outs that look alike come from different tables or passages of the source."}
{"substance": "DO3A-VS-exendin4", "values": [{"measurement": "dose inducing a 50% decrease in binding (in vivo half-maximal inhibitory concentration)", "setting": "GLP1R [1]", "result": "approximately 0.45 µg/kg"}, {"measurement": "self-blocking", "setting": "GLP1R in the pancreas", "result": "negligible"}]}
{"substance": "^68Ga-DO3A-VS-exendin4 [^68Ga-exendin4]", "values": [{"measurement": "Plasma-to-blood ratio", "setting": "[2]; 5 min", "result": "1.76 ± 0.06 1/1"}, {"measurement": "Plasma-to-blood ratio", "setting": "[2]; 0.5 h", "result": "1.80 ± 0.05 1/1"}, {"measurement": "Plasma-to-blood ratio", "setting": "[2]; 1 h", "result": "1.79 ± 0.05 1/1"}, {"measurement": "plasma partitioning", "setting": "[2]", "result": "≈ 1.8"}, {"measurement": "affinity for GLP1R", "setting": "GLP1R [3]; radiolabeled tracer", "result": "nanomolar range"}]}
{"substance": "exendin4 [reference compound]", "values": [{"measurement": "affinity for GLP1R", "setting": "GLP1R [3]", "result": "nanomolar"}, {"measurement": "GLP1R agonist potency", "setting": "GLP1R [4]", "result": "subnanomolar"}]}
